According to patent publication US10174355B2, “Method for glycosylation of ginsenoside using a glycosyltransferase derived from panax ginseng” (KOREA ADVANCED INSTITUTE OF SCIENCE AND TECHNOLOGY, priority 2014, dated 2019):

Experiments:
PgUGT71A1 = test: In-vitro glycosyltransferase assay of recombinant PgUGT71A1 with ginsenoside substrates and UDP-glucose; format: biochemical, Panax ginseng; conditions: for conversion by PgUGT71A1 (product formed), HPLC / conversion by PgUGT71A1 (product formed), TLC: ginsenoside 5 mM, UDP-glucose 50 mM, 35° C., 12 hours; for conversion by PgUGT71A1 (product formed), HPLC: FIG. 2 bottom; for conversion by PgUGT71A1 (product formed), TLC: FIG. 2 top; for reaction with PgUGT71A1 confirmed by thin-layer chromatography: screen of 9 ginsenosides incubated with recombinant PgUGT71A1 in the presence of UDP-glucose; for conversion by PgUGT71A1 (product formed), TLC / reaction with PgUGT71A1 confirmed by thin-layer chromatography: TLC
Protocol: A glycosyltransferase assay was conducted in a reaction buffer (10 mM PBS buffer, pH 7) containing the purified PgUGT71A1 (30 μg), a ginsenoside compound (5 mM) and UDP-glucose (50 mM). For this assay, 4 different types of ginsenosides, i.e., protopanaxadiol (PPD), protopanaxatriol (PPT), Rh2 and Rg3, were caused to react the enzyme of the present disclosure.
The reaction mixture was incubated at 35° C. for 12 hours and the resulting products were analyzed by thin-layer chromatography (TLC) or high-performance liquid chromatography (HPLC).
The TLC analysis was performed using a mobile phase (acetone:methanol:DDW=65:35:10 vol/vol) and a 60F254 silica gel plate (Merck, Germany). The resolved product on the TLC plate was detected by spraying 10% (vol/vol) sulfuric acid (H2SO4) and heating at 110° C. for 5 minutes.
The HPLC analysis was performed using an ODS(2) C18 column (Phenomenex, USA). The condition of gradient application of water and acetonitrile was as follows: flow rate=1 mL/min, 0 minute, 68% water and 32% acetonitrile; 8 minutes, 35% water and 65% acetonitrile; 12 minutes, 0% water and 100% acetonitrile; 20 minutes, 0% water and 100% acetonitrile; 20.1 minutes, 68% water and 32% acetonitrile; and 28 minutes, 68% water and 32% acetonitrile.
The ginsenosides were detected by monitoring at a wavelength of 203 nm using a UV detector (Agilent, USA).
First, the recombinant PgUGT of Example 1, PgUGT71A1, was incubated with 9 different types of ginsenosides (PPD, Rh2, Rg3, C—K, F2, Rd, PPT, F1, and Rh1) in the presence of UDP-glucose.
In order to confirm the result again, 4 different types of ginsenosides (PPD, PPT, Rh2, and Rg3) were incubated with PgUGT71A1, and the products converted by the recombinant PgUGT71A1 were analyzed by TLC. The result is shown at the top of FIG. 2. The result was confirmed by comparing the locations of the migrating spots with those of PPD, PPT, Rh2, Rg3, C—K, F2, Rd, and F1 used as standard samples.

PgUGT71A1 expression = test: Expression of PgUGT71A1 in ginseng leaves and roots after methyl jasmonate treatment (real-time PCR, NGS); format: in vivo, Panax ginseng; conditions: 200 μM MeJA sprayed onto leaves of 15-month-old ginseng daily for 5 days, sampled 6th day, FIGS. 3 and 4
Protocol: Total RNA was isolated from the leaf or root of 15-month-old ginseng using the Spectrum Plant Total RNA kit (Sigma-Aldrich). 200 μM methyl jasmonate (MeJA) was sprayed onto the leaves of ginseng every day for a total of 5 days and samples were collected on the 6th day. 1 μg of the total RNA was used for cDNA synthesis.
The expression level of different genes was examined by quantitative RT-PCR using the primer sets listed in Table 1, and the result was normalized to the expression level of tubulin.
RNA was extracted from the leaf and root of ginseng which had been treated and not treated with MeJA, and a cDNA library was constructed from 1 μg of the total RNA using the TruSeq RNA library kit. Following polyA-selected RNA extraction, RNA fragmentation and random hexamer-primed reverse transcription, 100 nt paired-end sequencing was conducted using Illumina HiSeq2000.
The resulting sequences were subjected to de novo transcriptome assembly using the Trinity (2011-11-26 version) program. The produced contigs (transcripts) were analyzed using Blast (version 2.2.25+). The GO database (released on 20-04-2012) and the NR database of NCBI (download date: 2012/05/07) were used. […] The expression level was expressed as fragments per kilobase of exon per million fragments mapped (FPKM) with a program released by the Trinity group using the RSEM algorithm. […]

| SMILES | conversion by PgUGT71A1 (product formed), HPLC (PgUGT71A1) | conversion by PgUGT71A1 (product formed), TLC (PgUGT71A1) | reaction with PgUGT71A1 confirmed by thin-layer chromatography (PgUGT71A1) | expression of PgUGT71A1 after MeJA treatment (PgUGT71A1 expression) |
| --- | --- | --- | --- | --- |
| CC(C)=CCCC(C)(O)[C@H]1CC[C@]2(C)[C@@H]1[C@H](O)C[C@@H]1[C@@]3(C)CC[C@H](O)C(C)(C)[C@@H]3CC[C@]12C (stereo in doubt) [PPD, protopanaxadiol] | converted PPD to C—K | converted PPD to compound K (C—K) | reaction occurred | – |
| CC/C=C\CC1C(=O)CCC1CC(=O)OC (stereo not shown) [MeJA, methyl jasmonate] | – | – | – | significantly enhanced |
| CC(C)=CCC[C@](C)(O)[C@H]1CC[C@]2(C)[C@@H]1[C@H](O)C[C@@H]1[C@@]3(C)CC[C@H](O)C(C)(C)[C@@H]3[C@@H](O)C[C@]12C [PPT, protopanaxatriol] | PPT to F1 | PPT to F1 | reaction occurred | – |
| CC(C)=CCC[C@](C)(O)[C@H]1CC[C@]2(C)[C@@H]1[C@H](O)C[C@@H]1[C@@]3(C)CC[C@H](O[C@@H]4O[C@H](CO)[C@@H](O)[C@H](O)[C@H]4O[C@@H]4O[C@H](CO)[C@@H](O)[C@H](O)[C@H]4O)C(C)(C)[C@@H]3CC[C@]12C [Rg3] | Rg3 to Rd | Rg3 to Rd | reaction occurred | – |
| CC(C)=CCC[C@](C)(O)[C@H]1CC[C@]2(C)[C@@H]1[C@H](O)C[C@@H]1[C@@]3(C)CC[C@H](O[C@@H]4O[C@H](CO)[C@@H](O)[C@H](O)[C@H]4O)C(C)(C)[C@@H]3CC[C@]12C [Rh2] | Rh2 to F2 | Rh2 to F2 | reaction occurred | – |
